{
  "source": "patent US20080064663A1",
  "about": "“Melt processing of phosphoroamido(di)thioate insecticides” (priority 2006, published 2008)",
  "test": "Processing of acephate melt in oxygen free atmosphere: degradation",
  "assay_type": "physicochemical",
  "procedure": "In some embodiments, the acephate-containing composition can be processed for more than 30 minutes without substantially any detectable degradation.",
  "data": [
    {"smiles": "COP(=O)(NC(C)=O)SC", "note": "(centres unmarked) [acephate]", "values": [
      {"measurement": "reduction of the acephate stability during storage", "setting": "after processing in molten state at 90° C. to 100° C. for 15 to 30 minutes under an effectively oxygen free atmosphere", "value": "without any reduction"},
      {"measurement": "degradation of the acephate processed in a molten state", "setting": "molten state at 90° C. to 100° C. for 15 minutes to 30 minutes under an effectively oxygen free atmosphere", "value": "without substantial or detectable degradation"}
    ]}
  ]
}
